Data on 18 compounds can be found in US10160724B2, “Tetrahydropyridine derivatives and their use as antibacterial agents” (Dong-A St Co., Ltd., priority 2016, dated 2018).

What all share (assay): In vitro antibiotic activity, agar dilution method (Mueller-Hinton agar, NCCLS)
What all share (format): cell-based

One test concerns E. coli ATCC 25922. The note with it: Escherichia coli. The protocol:
(§1) To measure the antibiotic activity of the compounds prepared by Examples, antibiotic activity test in vitro was performed by agar dilution method using Mueller-Hinton agar according to the NCCLS (National Committee for Clinical Laboratory Standards. 2000. Methods for dilution antimicrobial susceptibility tests for bacteria that grow aerobiocally. Approved standard, NCCLS document M7-M5, 5th ed, vol 20, no 2. National Committee for Clinical Laboratory Standards, Wayne, Pa.). The test strain was Escherichia coli (ATCC 25922), Klebsiella pneumonia (ATCC 29665) and Pseudomonas aeriginosa (PAO1).

In a further test the test system is K. pneumoniae ATCC 29665. The note with it: Klebsiella pneumoniae. The protocol: as §1
Another test deals with P. aeruginosa PAO1. The note with it: Pseudomonas aeruginosa. As to the method:
as §1

Where [1] appears, read: ATCC25922, agar dilution, Mueller-Hinton agar, read-out: MIC for E. coli ATCC 25922.
The mark [2] stands for this setting: ATCC29665, agar dilution, Mueller-Hinton agar, read-out: MIC for K. pneumoniae ATCC 29665.
The mark [3] stands for this setting: PAO1, agar dilution, Mueller-Hinton agar, read-out: MIC for P. aeruginosa PAO1.

≈ marks a conversion by molar mass, not a printed value. Like-named read-outs stand apart in the source and are kept apart here.

Take `CC(CCN1CC=C(c2ccc(C#CCCCN)cc2)CC1)(C(=O)NO)S(C)(=O)=O` (stereo not drawn) [Example 21, 4-(4-(4-(5-aminopent-1-yn-1-yl)phenyl)-3,6-dihydropyridin-1(2H)-yl)-N-hydroxy-2-methyl-2-(methylsulfonyl)butanamide]: the minimum inhibitory concentration (MIC) in the test with E. coli ATCC 25922 (setting [1]) was 8 to 16 µg/mL (≈ 18.5 to 36.9 µM); in the test on K. pneumoniae ATCC 29665 (setting [2]) it was > 16 µg/mL; with P. aeruginosa PAO1 (setting [3]), > 16 µg/mL.

`CCCCC#Cc1ccc(C2=CCN(CCC(C)(C(=O)NO)S(C)(=O)=O)CC2)cc1` (stereo not drawn) [Example 6, 4-(4-(4-(hex-1-yn-1-yl)phenyl)-3,6-dihydropyridin-1(2H)-yl)-N-hydroxy-2-methyl-2-(methylsulfonyl)butanamide]: the MIC is < 1 µg/mL in the test on E. coli ATCC 25922 (setting [1]), 1 to 8 µg/mL (≈ 2.31 to 18.5 µM) with K. pneumoniae ATCC 29665 (setting [2]) and 8 to 16 µg/mL (≈ 18.5 to 37 µM) with P. aeruginosa PAO1 (setting [3]).

As for `CN(C)CC#Cc1c(F)cc(C2=CCN(CCC(C)(C(=O)NO)S(C)(=O)=O)CC2)cc1F` (stereo not drawn) [Example 32, 4-(4-(4-(3-(dimethylamino)prop-1-yn-1-yl)-3,5-difluorophenyl)-3,6-dihydropyridin-1(2H)-yl)-N-hydroxy-2-methyl-2-(methylsulfonyl)butanamide], the MIC was < 1 µg/mL with E. coli ATCC 25922 (setting [1]), 1 to 8 µg/mL (≈ 2.13 to 17 µM) in the test on K. pneumoniae ATCC 29665 (setting [2]) and 1 to 8 µg/mL (≈ 2.13 to 17 µM) with P. aeruginosa PAO1 (setting [3]).

Regarding `CN(C)CC#CC#Cc1ccc(C2=CCN(CCC(C)(C(=O)NO)S(C)(=O)=O)CC2)cc1F` (stereo not drawn) [Example 45, 4-(4-(4-(5-(dimethylamino)penta-1,3-diyn-1-yl)-3-fluorophenyl)-3,6-dihydropyridin-1(2H)-yl)-N-hydroxy-2-methyl-2-(methylsulfonyl)butanamide], the MIC in the test on E. coli ATCC 25922 (setting [1]) is < 1 µg/mL; in the test on K. pneumoniae ATCC 29665 (setting [2]), 1 to 8 µg/mL (≈ 2.1 to 16.8 µM); in the test on P. aeruginosa PAO1 (setting [3]), 1 to 8 µg/mL (≈ 2.1 to 16.8 µM).

Take `Cn1cnc(C#Cc2ccc(C3=CCN(CCC(C)(C(=O)NO)S(C)(=O)=O)CC3)cc2)c1` (stereo not drawn) [Example 38, N-hydroxy-2-methyl-4-(4-(4-((1-methyl-1H-imidazol-4-yl)ethynyl)phenyl)-3,6-dihydropyridin-1(2H)-yl)-2-(methylsulfonyl)butanamide]: the MIC was < 1 µg/mL in the test on E. coli ATCC 25922 (setting [1]), 1 to 8 µg/mL (≈ 2.19 to 17.5 µM) in the test on K. pneumoniae ATCC 29665 (setting [2]) and 1 to 8 µg/mL (≈ 2.19 to 17.5 µM) in the test on P. aeruginosa PAO1 (setting [3]).

Turning to `COCC#CC#Cc1ccc(C2=CCN(CCC(C)(C(=O)NO)S(C)(=O)=O)CC2)cc1` (stereo not drawn) [Example 50, N-hydroxy-4-(4-(4-(5-methoxypenta-1,3-diyn-1-yl)phenyl)-3,6-dihydropyridin-1(2H)-yl)-2-methyl-2-(methylsulfonyl)butanamide], the values for the MIC in the test with E. coli ATCC 25922 (setting [1]), in the test on K. pneumoniae ATCC 29665 (setting [2]) and in the test on P. aeruginosa PAO1 (setting [3]) were < 1 µg/mL, 1 to 8 µg/mL (≈ 2.25 to 18 µM) and < 1 µg/mL, respectively.

`CN(C)c1ccc(C#Cc2ccc(C3=CCN(CCC(C)(C(=O)NO)S(C)(=O)=O)CC3)cc2)cc1` (stereo not drawn) [Example 1, 4-(4-(4-((4-(dimethylamino)phenyl)ethynyl)phenyl)-3,6-dihydropyridin-1(2H)-yl)-N-hydroxy-2-methyl-2-(methylsulfonyl)butanamide]: the MIC in the test on E. coli ATCC 25922 (ATCC25922, read-out: MIC for E. coli ATCC 25922) was > 16 µg/mL; with K. pneumoniae ATCC 29665 (ATCC29665, read-out: MIC for K. pneumoniae ATCC 29665), > 16 µg/mL; in the test with P. aeruginosa PAO1 (PAO1, read-out: MIC for P. aeruginosa PAO1), > 16 µg/mL.

For `CC(CCN1CC=C(c2ccc(-c3ccc(O)cc3)cc2)CC1)(C(=O)NO)S(C)(=O)=O` (stereo not drawn) [Example 59, N-hydroxy-4-(4-(4′-hydroxy-[1,1′-biphenyl]-4-yl)-3,6-dihydropyridin-1(2H)-yl)-2-methyl-2-(methylsulfonyl)butanamide], the MIC with E. coli ATCC 25922 (setting [1]) is < 1 µg/mL; in the test on K. pneumoniae ATCC 29665 (setting [2]), 8 to 16 µg/mL (≈ 18 to 36 µM); in the test with P. aeruginosa PAO1 (setting [3]) it was 8 to 16 µg/mL (≈ 18 to 36 µM).

Take `CC(CCN1CC=C(c2ccc(-c3ccc(Cl)cc3)cc2)CC1)(C(=O)NO)S(C)(=O)=O` (stereo not drawn) [Example 57, 4-(4-(4′-chloro-[1,1′-biphenyl]-4-yl)-3,6-dihydropyridin-1(2H)-yl)-N-hydroxy-2-methyl-2-(methylsulfonyl)butanamide]: the MIC in the test on E. coli ATCC 25922 (setting [1]) is 1 to 8 µg/mL (≈ 2.16 to 17.3 µM); in the test on K. pneumoniae ATCC 29665 (setting [2]), > 16 µg/mL; with P. aeruginosa PAO1 (setting [3]), > 16 µg/mL.

Turning to `CC(CCN1CC=C(C#Cc2ccc(Br)cc2)CC1)(C(=O)NO)S(C)(=O)=O` (stereo not drawn) [Example 53, 4-(4-((4-bromophenyl)ethynyl)-3,6-dihydropyridin-1(2H)-yl)-N-hydroxy-2-methyl-2-(methylsulfonyl)butanamide], the minimum inhibitory concentration (MIC) in the test with E. coli ATCC 25922 (setting [1]) is 1 to 8 µg/mL (≈ 2.2 to 17.6 µM); in the test on K. pneumoniae ATCC 29665 (setting [2]) it was 1 to 8 µg/mL (≈ 2.2 to 17.6 µM); with P. aeruginosa PAO1 (setting [3]), > 16 µg/mL.

Take `COCC#Cc1ccc(C2=CCN(CCC(C)(C(=O)NO)S(C)(=O)=O)CC2)cn1` (stereo not drawn) [Example 75, N-hydroxy-4-(6-(3-methoxyprop-1-yn-1-yl)-3′,6′-dihydro-[3,4′-bipyridin]-1′(2′H)-yl)-2-methyl-2-(methylsulfonyl)butanamide]: the MIC in the test on E. coli ATCC 25922 (setting [1]), in the test on K. pneumoniae ATCC 29665 (setting [2]) and with P. aeruginosa PAO1 (setting [3]) was > 16 µg/mL each time.

For the compound `COCC#Cc1ccc(C2=CCN(CCC(C)(C(=O)NO)S(C)(=O)=O)CC2)cc1` (stereo not drawn) [Example 23, N-hydroxy-4-(4-(4-(3-methoxyprop-1-yn-1-yl)phenyl)-3,6-dihydropyridin-1(2H)-yl)-2-methyl-2-(methylsulfonyl)butanamide], the values for the MIC in the test on E. coli ATCC 25922 (setting [1]), with K. pneumoniae ATCC 29665 (setting [2]) and in the test on P. aeruginosa PAO1 (setting [3]) were < 1 µg/mL, 1 to 8 µg/mL (≈ 2.38 to 19 µM) and 1 to 8 µg/mL (≈ 2.38 to 19 µM), respectively.

In the case of `CC(CCN1CC=C(c2ccc(-c3ccc(OS(C)(=O)=O)cc3)cc2)CC1)(C(=O)NO)S(C)(=O)=O` (stereo not drawn) [Example 69, 4′-(1-(4-(hydroxyamino)-3-methyl-3-(methylsulfonyl)-4-oxobutyl)-1,2,3,6-tetrahydropyridin-4-yl)-[1,1′-biphenyl]-4-yl methanesulfonate], the MIC with E. coli ATCC 25922 (setting [1]) was < 1 µg/mL; in the test with K. pneumoniae ATCC 29665 (setting [2]) it was < 1 µg/mL; in the test on P. aeruginosa PAO1 (setting [3]), 8 to 16 µg/mL.

As for `CC(C)CC#Cc1ccc(C2=CCN(CCC(C)(C(=O)NO)S(C)(=O)=O)CC2)cc1` (stereo not drawn) [Example 13, N-hydroxy-2-methyl-4-(4-(4-(4-methylpent-1-yn-1-yl)phenyl)-3,6-dihydropyridin-1(2H)-yl)-2-(methylsulfonyl)butanamide], the MIC was < 1 µg/mL in the test with E. coli ATCC 25922 (setting [1]), 1 to 8 µg/mL (≈ 2.31 to 18.5 µM) in the test on K. pneumoniae ATCC 29665 (setting [2]) and 8 to 16 µg/mL (≈ 18.5 to 37 µM) in the test with P. aeruginosa PAO1 (setting [3]).

As to `CN1CC(C#Cc2ccc(C3=CCN(CCC(C)(C(=O)NO)S(C)(=O)=O)CC3)cc2)C1` (stereo not drawn) [Example 39, N-hydroxy-2-methyl-4-(4-(4-((1-methylazetidin-3-yl)ethynyl)phenyl)-3,6-dihydropyridin-1(2H)-yl)-2-(methylsulfonyl)butanamide], the minimum inhibitory concentration (MIC) in the test on E. coli ATCC 25922 (setting [1]), with K. pneumoniae ATCC 29665 (setting [2]) and with P. aeruginosa PAO1 (setting [3]) was 8 to 16 µg/mL (≈ 18 to 35.9 µM) in each case.

For `CC(CCN1CC=C(c2ccc(-c3ccc(F)cc3)cc2)CC1)(C(=O)NO)S(C)(=O)=O` (stereo not drawn) [Example 58, 4-(4-(4′-fluoro-[1,1′-biphenyl]-4-yl)-3,6-dihydropyridin-1(2H)-yl)-N-hydroxy-2-methyl-2-(methylsulfonyl)butanamide], the minimum inhibitory concentration (MIC) in the test with E. coli ATCC 25922 (setting [1]) was < 1 µg/mL; in the test with K. pneumoniae ATCC 29665 (setting [2]) it was 1 to 8 µg/mL (≈ 2.24 to 17.9 µM); in the test with P. aeruginosa PAO1 (setting [3]) it was > 16 µg/mL.

For the compound `COc1ccc(-c2ccc(C3=CCN(CCC(C)(C(=O)NO)S(C)(=O)=O)CC3)cc2)cc1F` (stereo not drawn) [Example 60, 4-(4-(3′-fluoro-4′-methoxy-[1,1′-biphenyl]-4-yl)-3,6-dihydropyridin-1(2H)-yl)-N-hydroxy-2-methyl-2-(methylsulfonyl)butanamide], the figures for the MIC in the test with E. coli ATCC 25922 (setting [1]), in the test on K. pneumoniae ATCC 29665 (setting [2]) and in the test with P. aeruginosa PAO1 (setting [3]) were < 1 µg/mL, 8 to 16 µg/mL (≈ 16.8 to 33.6 µM) and > 16 µg/mL, respectively.

Regarding `CC(CCN1CC=C(c2ccc(C#CC3CCCCC3)cc2)CC1)(C(=O)NO)S(C)(=O)=O` (stereo not drawn) [Example 10, 4-(4-(4-(cyclohexylethynyl)phenyl)-3,6-dihydropyridin-1(2H)-yl)-N-hydroxy-2-methyl-2-(methylsulfonyl)butanamide], the MIC with E. coli ATCC 25922 (setting [1]) was in the range of 1 to 8 µg/mL (≈ 2.18 to 17.4 µM); with K. pneumoniae ATCC 29665 (setting [2]), 8 to 16 µg/mL (≈ 17.4 to 34.9 µM); with P. aeruginosa PAO1 (setting [3]), 8 to 16 µg/mL (≈ 17.4 to 34.9 µM).
